Values joined by “and” are separate entries in the source; they are usually repeats but may differ in a detail not shown here. Identical values can stand only once. Like-named read-outs stand apart in the source and are kept apart here.
How the values were obtained:
human androgen receptors [1] = target: T1, human androgen receptors (Homo sapiens, UniProt P10275); assay: Androgen activity of anti-androgens in CVI-3.9.2 cells (CAT activity); type: cell-based
T1 construct: expressed in transfected cells; host or cells: CV-1 monkey cells (clone CV1-3.9.2)
Method: (§1) The androgenic and anti-androgenic activity of the current and novel compounds was tested in a specific assay described by Fuhrman et al. [J. Steroid Biochem. Molec. […] This assay uses CV-1 cells derived from monkeys transfected with human androgen receptors.

human androgen receptors [2] = target: T1, human androgen receptors; assay: Transactivation assay, anti-androgenic potency, CV1-3.9.2 cells; type: cell-based; conditions: stimulation with 0.1 nM testosterone
Method: as §1

L-1210 Mouse Leukemia = assay: Inhibition of cell proliferation at 72 hours, L-1210; type: cell-based; conditions: L1210, L-1210, 72 hours
Ovcar 3 Human Ovary = assay: Inhibition of cell proliferation at 72 hours, Ovcar 3; type: cell-based; conditions: Ovcar 3, 72 hours
Method: (§2) All compounds were screened on a panel of normal and cancer human cell lines, including human prostate cancer cell lines, PC-3, DU-145, and LnCAP.
(§3) Cells (10^4 /well) were plated on 96 well plates with the following controls: no cells and toxic control (1×10^-3 M sodium dodecyl sulfate (SDS). The drug was diluted in ethanol and added directly to the wells. Plates were incubated at 37° C. under 5% carbon dioxide in sterile air, in a humidified incubator for 72 hours. A solution (50 μl of 2,3-bis-(methoxy-4-nitro-5-sulfophenyl)-5-[(phenylamino)carbonyl]-2H-tetrazolium hydroxide (XTT), 1 mg/mL) in phosphate buffered saline (PBS, 100 mM) was added to each well, In the presence of viable cells, this colorless clear solution is enzymatically transformed to give a pink coloration, read at 450 nm using a microplate reader (Molecular Devices Thermomax). The inhibition of cell growth was measured by hemocytometer, counting cell viability. (Table I)

[3] = tested on: DU-145 Human Prostate (receptor poor); assay: Inhibition of cell proliferation at 72 hours, DU-145; type: cell-based; conditions: DU-145, 72 hours
Method: as §2, §3

[4] = tested on: Molt-4 Human T-cell Leukemia; assay: Inhibition of cell proliferation at 72 hours, Molt-4; type: cell-based; conditions: Molt-4, 72 hours
Method: as §2, §3

[5] = tested on: CHO Chinese Hamster Ovary; assay: Inhibition of cell proliferation at 72 hours, CHO; type: cell-based; conditions: Cricetulus griseus
[6] = tested on: PC-3 Human Prostate (few androgen receptors); assay: Inhibition of cell proliferation at 72 hours, PC-3; type: cell-based; conditions: PC-3, 72 hours
Method: as §2, §3

[7] = tested on: MCF-7/ADR Human Breast (adriamycin resistant); assay: Inhibition of cell proliferation at 72 hours, MCF-7/ADR; type: cell-based; conditions: NCI/ADR-RES, MCF-7/ADR (adriamycin resistant)
Method: as §2, §3

[8] = tested on: NH DF Normal Dermal Fibroblast; assay: Inhibition of cell proliferation at 72 hours, NH DF; type: cell-based; conditions: Homo sapiens, NHDF
Method: as §2, §3

MCF-7 Human Breast = assay: Inhibition of cell proliferation at 72 hours, MCF-7; type: cell-based; conditions: MCF7, MCF-7, 72 hours
Method: as §2, §3

PC-3 human cell line = assay: Relative growth inhibition after 6 days; type: cell-based; conditions: for activity at 10 µM: Homo sapiens, read-out: No. of cells remaining expressed as a % of control
Method: as §2
as §3, with “Plates were incubated at 37° C. under 5% carbon dioxide in sterile air, in a humidified incubator for 72 hours.” left out

[9] = tested on: HLF-1 Normal Lung Diploid; assay: Inhibition of cell proliferation at 72 hours, HLF-1; type: cell-based; conditions: Homo sapiens, HLF1
Method: as §2, §3

[10] = tested on: Ln CAP Human Prostate (with androgen receptors); assay: Inhibition of cell proliferation at 72 hours, Ln CAP; type: cell-based; conditions: LNCaP
Method: as §2, §3

[11] = tested on: panel of normal and cancer human cell lines; assay: Cytotoxicity screen on panel of normal and cancer cell lines; type: cell-based
Method: as §2, §3

androgen receptors = conditions: background statement; cited from earlier work
glucocorticoid receptors = conditions: background statement; cited from earlier work
progestin receptors = conditions: background statement; cited from earlier work
[12] = 10^-5 M, cell density 10^4/well

T1 sequence (P10275 whole entry): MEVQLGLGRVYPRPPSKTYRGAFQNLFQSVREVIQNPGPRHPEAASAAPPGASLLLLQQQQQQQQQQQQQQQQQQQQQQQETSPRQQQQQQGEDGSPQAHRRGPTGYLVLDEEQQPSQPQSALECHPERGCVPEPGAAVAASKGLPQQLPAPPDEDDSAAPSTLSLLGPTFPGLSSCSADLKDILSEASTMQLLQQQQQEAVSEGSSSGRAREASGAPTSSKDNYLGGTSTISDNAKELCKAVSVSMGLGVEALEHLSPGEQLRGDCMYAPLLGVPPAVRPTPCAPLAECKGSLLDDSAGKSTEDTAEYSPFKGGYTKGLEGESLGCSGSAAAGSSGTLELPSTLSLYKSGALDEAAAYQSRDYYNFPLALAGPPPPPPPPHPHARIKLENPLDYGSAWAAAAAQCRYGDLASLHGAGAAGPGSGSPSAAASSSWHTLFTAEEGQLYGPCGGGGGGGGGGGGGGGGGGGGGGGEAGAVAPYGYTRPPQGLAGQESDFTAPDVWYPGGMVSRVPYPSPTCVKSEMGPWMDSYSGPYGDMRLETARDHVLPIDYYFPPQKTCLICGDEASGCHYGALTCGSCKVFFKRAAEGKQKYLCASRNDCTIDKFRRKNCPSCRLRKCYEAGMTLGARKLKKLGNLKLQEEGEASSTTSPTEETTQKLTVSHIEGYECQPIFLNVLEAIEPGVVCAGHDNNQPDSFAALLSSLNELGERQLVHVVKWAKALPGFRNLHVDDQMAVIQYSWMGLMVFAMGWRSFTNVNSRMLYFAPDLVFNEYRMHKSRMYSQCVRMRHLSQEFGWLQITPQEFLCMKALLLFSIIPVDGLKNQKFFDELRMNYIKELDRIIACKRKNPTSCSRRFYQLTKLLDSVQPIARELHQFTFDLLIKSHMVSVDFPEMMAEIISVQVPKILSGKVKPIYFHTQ

CC1(C)OCC(CN2C(=S)N(c3ccc(C#N)c(C(F)(F)F)c3)C(=O)C2(C)C)O1 (centres unmarked) [BP134, 4-[4,4-dimethyl-3-[2',2'-dimethyl-1',3'-dioxolane-4'-methyl)-5-oxo-2-thioxo-1-imidazolidinyl]-2-trifluoromethyl-benzonitrile]
CAT Activity (human androgen receptors [1]; 1 μM): 1600 cpm
IC50 (human androgen receptors [2]): 0.021 µM

CC1(C)C(=O)N(c2ccc(C#N)c(C(F)(F)F)c2)C(=S)N1CC(O)CO (centres unmarked) [BP135, 4-[3-(2',3'-dihydroxypropyl)-4,4-dimethyl-5-oxo-2-thioxo-1-imidazolidinyl]-2-trifluoromethyl-benzonitrile]
CAT Activity (human androgen receptors [1]; 1 μM): 1900 cpm
IC50 (human androgen receptors [2]): 0.158 µM

CC(C)(C)OC(=O)NCCN1C(=S)N(c2ccc(C#N)c(C(F)(F)F)c2)C(=N)C1(C)C [BP136, 4-[3-(2'-(N-t-butoxycarbonyl)-aminoethyl)-4,4-dimethyl-5-imino-2-thioxo-1-imidazolidinyl]-2-trifluoromethyl-benzonitrile]
CAT Activity (human androgen receptors [1]; 1 μM): 1800 cpm
IC50 (human androgen receptors [2]): 0.2 µM

CC(C)(C)OC(=O)NCCN1C(=S)N(c2ccc(C#N)c(C(F)(F)F)c2)C(=O)C1(C)C [BP137, 4-[3-(2'-N-(t-butoxycarbonyl)-aminoethyl)-4,4-dimethyl-5-oxo-2-thioxo-1-imidazolidinyl]-2-trifluoromethyl-benzonitrile]
CAT Activity (human androgen receptors [1]; 1 μM): 2000 cpm
IC50 (human androgen receptors [2]): 0.02 µM

CC1(C)C(=O)N(c2ccc(C#N)c(C(F)(F)F)c2)C(=S)N1CCN [BP138, 4-[3-(2'-aminoethyl) 4,4-dimethyl-5-oxo-2-thioxo-1-imidazolidinyl]-2-trifluoromethyl-benzonitrile]
CAT Activity (human androgen receptors [1]; 1 μM): 1600 cpm
IC50 (human androgen receptors [2]): 0.139 µM

CC(=O)NCCN1C(=S)N(c2ccc(C#N)c(C(F)(F)F)c2)C(=O)C1(C)C [BP139, 4-[3-(2'-N-acetylaminoethyl)-4,4-dimethyl-5-oxo-2-thioxo-1-imidazolidinyl]-2-trifluoromethyl-benzonitrile]
CAT Activity (human androgen receptors [1]; 1 μM): 1500 cpm
IC50 (human androgen receptors [2]): 0.239 µM

CC1(C)OCC(CN2C(=S)N(c3ccc(C#N)c(C(F)(F)F)c3)C(=N)C2(C)C)O1 (centres unmarked) [BP163, 4-[4,4-dimethyl-3-(2',2'-dimethyl-1',3'-dioxolane-4'-methyl)-5-imino-2-thioxo-1-imidazolidinyl]-2-trifluoromethyl-benzonitrile]
CAT Activity (human androgen receptors [1]; 1 μM): 2100 cpm
IC50 (human androgen receptors [2]): 0.217 µM

C=CCN1C(=S)N(c2ccc(C#N)c(C(F)(F)F)c2)C(=O)C1(C)C [BP-82, 4-[4,4-dimethyl-5-oxo-3-(2'-propenyl)-2-thioxo-1-imidazolidinyl]-2-trifluoromethyl-benzonitrile]
IC50 (L-1210 Mouse Leukemia): 25 µM
IC50 (Ovcar 3 Human Ovary): 96.5 µM
IC50 [3]: 13.9 µM
IC50 [4]: 48.8 µM
IC50 [5]: 34.5 µM
IC50 [6]: 31.5 µM
CAT Activity (human androgen receptors [1]; 1 μM): 1300 cpm
IC50 (human androgen receptors [2]): ~0.0065 µM
IC50 [7]: 15.1 µM
IC50 [8]: 91.7 µM
IC50 (MCF-7 Human Breast): 50 µM
activity at 10 µM (PC-3 human cell line; [12]): ~70%
cytostatic effect in PC-3 human cell line (PC-3 human cell line; PC-3, Table II): cytostatic effect
IC50 [9]: 39 µM
IC50 [10]: 66 µM

CC(=O)O[C@H]1C(=O)[C@]2(C)[C@@H](OC(=O)NCCN3C(=S)N(c4ccc(C#N)c(C(F)(F)F)c4)C(=O)C3(C)C)C[C@H]3OC[C@@]3(OC(C)=O)[C@H]2[C@H](OC(=O)c2ccccc2)[C@]2(O)C[C@H](OC(=O)[C@H](O)[C@@H](NC(=O)c3ccccc3)c3ccccc3)C(C)=C1C2(C)C [BP-196, 7-{imidazolidinyl-5",5"-dimethyl-4"-oxo-3"-[4"'-cyano-3'"-trifluoromethylphenyl-imidazolidinyl]-2"-thioxo-1"-ethylcarbamoxy}paclitaxel]
IC50 (L-1210 Mouse Leukemia): 0.97 µM
IC50 (Ovcar 3 Human Ovary): 0.05 µM
IC50 [3]: 0.867 µM
IC50 [4]: 0.147 µM
IC50 [5]: 8.76 µM
IC50 [6]: 0.0372 µM
toxicity vis-a-vis normal cells ([11]; normal cells): quite high
IC50 [7]: 10 µM
IC50 [8]: 0.107 µM
IC50 (MCF-7 Human Breast): 0.989 µM
Observation (relative growth inhibition) (PC-3 human cell line; 10^-5 M, after 6 days, cell density 10^4/well): cytotoxic cell death
activity at 10 µM (PC-3 human cell line; [12]): ~100%
IC50 [9]: 8.06 µM
IC50 [10]: 0.131 µM

C#CCN1C(=S)N(c2ccc(C#N)c(C(F)(F)F)c2)C(=O)C1(C)C [BP-199, 4-[4,4-dimethyl-3-(2'-propynyl)-5-oxo-2-thioxo-1-imidazolidinyl]-2-trifluoromethyl-benzonitrile]
IC50 (L-1210 Mouse Leukemia): 11 µM
IC50 (Ovcar 3 Human Ovary): > 100 µM
IC50 [3]: 85.1 µM
IC50 [4]: > 100 µM
IC50 [5]: 12.8 µM
IC50 [6]: 0.132 µM
cytotoxicity in human prostate cancer lines containing at least some androgen receptors ([11]; human prostate cancer lines): most cytotoxic
cytotoxicity in a variety of other human transformed and normal cells ([11]; other human transformed and normal cells): low cytotoxicity
IC50 (human androgen receptors [2]): 0.015 µM
IC50 [7]: 10 µM
IC50 [8]: > 100 µM
IC50 (MCF-7 Human Breast): 100 µM
activity at 10 µM (PC-3 human cell line; [12]): ~50%
IC50 [9]: > 100 µM
IC50 [10]: 0.82 µM

CC1(C)C(=O)N(c2ccc(C#N)c(C(F)(F)F)c2)C(=S)N1CCc1c[nH]cn1 [BP-213]
activity at 10 µM (PC-3 human cell line; [12]): ~40%

CC(O)(CS(=O)(=O)c1ccc(F)cc1)C(=O)Nc1ccc(C#N)c(C(F)(F)F)c1 (centres unmarked) [Casodex]
binding to androgen receptors (sufficiency for complete blockage) (androgen receptors): do not bind sufficiently to androgen receptors to achieve their complete blockage

CC(=O)O[C@]1(C(C)=O)CC[C@H]2[C@@H]3C=C(Cl)C4=CC(=O)[C@@H]5C[C@@H]5[C@]4(C)[C@H]3CC[C@@]21C [Cyproterone Acetate]
binding to glucocorticoid receptors (glucocorticoid receptors): binds to the glucocorticoid and progestin receptors
binding to progestin receptors (progestin receptors): binds to the glucocorticoid and progestin receptors

C[C@]1(O)CC[C@H]2[C@@H]3CCC4=CC(=O)CCC4=C3C=C[C@@]21C [R1881, reference compound]
CAT Activity (human androgen receptors [1]): 5400 cpm and 5600 cpm and 6700 cpm

CC1(C)C(=O)N(c2ccc(C#N)c(C(F)(F)F)c2)C(=S)N1CCCCO [RU59063, 4-[4,4-dimethyl-3-(4-hydroxybutyl)-5-oxo-2-thioxo-1-imidazolidinyl]-2-trifluoromethyl-benzonitrile, reference compound]
CAT Activity (human androgen receptors [1]; 1 μM): 2600 cpm
IC50 (human androgen receptors [2]): 0.023 µM

From patent US5656651A, “Androgenic directed compositions” (Biophysica Inc., priority 1995, dated 1997)
